Experimental data published in patent publication US9783510B2, “Small molecule mediated transcriptional induction of E-cadherin” (Vanderbilt University, priority 2014, dated 2017).

Assays:
[1] = Clearance in human microsomes; format: in vitro ADME
Experimental: (§1) The potency and efficacy of Compound 13 was evaluated in vivo. For these studies, the pharmacokinetics of Compound 13 were first evaluated in vitro and in vivo (FIG. 14).

[2] = test system: E-cadherin expression in SW620 cells; experiment: E-cadherin expression, in-cell Western (ICW), SW620 cells; format: cell-based; settings: Homo sapiens
How it was run: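 SW620 cells were treated with compound for 24 h in RPMI 1640 (single-point at 10 μM; EC50 also determined), in quadruplicate. After methanol fixation, in-cell Western with anti-E-cadherin and anti-α-tubulin primaries and IRDye 800/700 secondaries. Read on an Odyssey IR imager.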

[3] = IV pharmacokinetics in Sprague-Dawley rats; format: in vivo; settings: IV dosing
Experimental: as §1

[4] = Protein binding in vitro, human samples; format: in vitro ADME
Experimental: as §1

[5] = test system: proximal region of the E-cadherin promoter (Cdh1) in SW620inv cells; experiment: ChIP assay at proximal E-cadherin promoter, SW620inv cells; format: cell-based
[6] = test system: human E-cadherin promoter; experiment: E-cadherin promoter luciferase reporter assay in SW620inv cells; format: cell-based; settings: 10 μM, 24 hours
Experimental: The 1.4 kbp E-cadherin promoter plasmid (E1) and deletion plasmids E2-E8 were a gift from Dr. Eric Fearon at The University of Michigan (Liu, Y. N., et al. (2005) Onocogene 24, 8277-8290). All plasmid constructs were sequenced at the Vanderbilt University Sequencing Core to confirm the E-cadherin promoter fragments using the PCR primers listed in Table I and herein below. Luciferase assays were performed as previously described (Freeman, T. J., et al. (2012) Gastroenterology 142, 562-572).
Compound 13 (259Y) induces>20-fold increases in reporter activation driven by the 1130 bp promoter region in an assay in which an exogenous firefly luciferase gene is driven by defined regions of the human E-cadherin promoter. This region includes consensus binding sequences for several known transcription factors, including AML1, P300, Snail and SP1 (Liu, Y. N., et al. (2005) Oncogene 24, 8277-8290). […]
Referring to FIG. 5, a diagram of the 8 E-cadherin promoter reporter plasmids (full length and truncations) utilized to determine promoter elements critical for promoter activity is shown. […] Fold change is Log2^−ΔΔCp of the normalized fluorescence signal relative to the mean of the DMSO treated group. Statistical significance was calculated using a two-way ANOVA (Holm-Sidak method): ****=p<0.00005, ***=p<0.0005, **=p<0.005, *=p<0.05. […]

Clearance in vitro, rat = format: in vitro ADME
Experimental: as §1

[7] = SW620inv, ChIP, 10 μM vs DMSO (FIG. 7C)

clearance [1]: minimal
EC50 ([2]; SW-620, inducement of E-cadherin expression in SW620 cells): 4.1 µM
clearance [3]: moderate
elimination half-life [3]: long
volume of distribution [3]: moderate
protein binding [4]: relatively high
clearance (Clearance in vitro, rat): very moderate
SMILES: O=C(NCCCNC(=O)c1cccnc1O)c1cc(-c2ccccc2)on1 [Compound 13, N-(3-(2-hydroxynicotinamido)propyl)-5-phenylisoxazole-3-carboxamide]
fold induction at 10 µM ([2]; SW-620, 24 h, change in expression level of E-cadherin in response to 10 μM compound, 24 hours, SW620 cells): 5.23
Pol II association with the E-cadherin proximal promoter ([5]; ChIP (FIG. 8)): 3.7 fold
enriched binding of H3K4me3 at the E-cadherin promoter [5, 7]: 2.1 fold
enriched binding of H3K9Ac at the E-cadherin promoter [5, 7]: 3.4 fold
enriched binding of Pol II at the E-cadherin promoter [5, 7]: 4.6 fold
reporter activation ([6]; 1130 bp promoter region): > 20 fold
reporter activation above control after serial deletion of distal promoter regions ([6]; deletion incl. −492 bp to −330 bp): > 10 ×
